Source: patent US8586551B2, “18-membered macrocycles and analogs thereof” (Optimer Pharmaceuticals, Inc., priority 2005, dated 2013)
≈ marks a conversion by molar mass, not a printed value.

Tests used:
[1] = tested on: Bacteroides fragilis group spp.; test: MIC against intestinal bacteria: Bacteroides fragilis group; format: cell-based
E. faecalis = test: MIC against other microorganisms: E. faecalis; settings: Enterococcus faecalis
Clostridium ramosum = test: MIC against intestinal bacteria: Clostridium ramosum; format: cell-based

## CCc1c(Cl)c(O)c(Cl)c(O)c1C(=O)O[C@H]1[C@H](O)[C@H](OC)[C@H](OCC2=CC=CC[C@H](O)C(C)=C[C@H](CC)[C@@H](O[C@@H]3OC(C)(C)[C@@H](OC(=O)C(C)C)[C@H](O)[C@@H]3O)C(C)=CC(C)=CC[C@@H]([C@@H](C)O)OC2=O)O[C@@H]1C [R-Tiacumicin B, 3-[[[6-Deoxy-4-O-(3,5-dichloro-2-ethyl-4,6-dihydroxybenzoyl)-2-O-methyl-β-D-mannopyranosyl]oxy]-methyl]-12(R)-[[6-deoxy-5-C-methyl-4-O-(2-methyl-1-oxopropyl)-β-D-lyxo-hexopyranosyl]oxy]-11(S)-ethyl-8(S)-hydroxy-18(S)-(1(R)-hydroxyethyl)-9,13,15-trimethyloxacyclooctadeca-3,5,9,13,15-pentaene-2-one]
[1]; Bacteroides fragilis
  MIC90: > 1020 µg/mL
[1]; Bacteroides fragilis group spp. (50)
  MIC50: 256 µg/mL (≈ 242 µM)
E. faecalis; ATCC29212, Strain ID # 4, E. faecalis (ATCC 29212)
  MIC: 2 µg/mL (≈ 1.89 µM)
E. faecalis; Strain ID # 5, E. faecalis Vanc. resistant
  MIC: 4 µg/mL (≈ 3.78 µM)
E. faecalis; Strain ID # 6, E. faecalis Vanc. resistant
  MIC: 1 µg/mL (≈ 0.945 µM)
Clostridium ramosum; Clostridium ramosum (10)
  MIC range: 256 to 512 µg/mL
Clostridium ramosum; Thomasclavelia ramosa
  MIC50: 512 µg/mL (≈ 484 µM)
Clostridium ramosum; Thomasclavelia ramosa, Clostridium ramosum (10)
  MIC90: 512 µg/mL (≈ 484 µM)
